# In patent US20110294992A1, “METAL RESPONSIVE MRI-AGENTS” (The Regents of the University of California, priority 2010, published 2011):
# Read-outs that look alike come from different tables or passages of the source. Marks after values point to notes of the source that are not given here.
# Assays:
# [1] = in water, measured at 10 MHz; cited from earlier work
# [2] = see reference 90, cited from earlier work
# [3] = Dysprosium-induced 17O NMR shift (DIS) experiments for q; assay type: physicochemical; settings: for −Δ ppm/[Dy] (DIS slope): no Cu^+
# Experimental: FIG. 8. Plot of [DyCG2] vs. −Δ ppm of the ^17O signal of H2O in the absence and presence of 1 equiv Cu^+. Spectra were acquired at room temperature in 20 mM HEPES buffer, pH 7, at a ^17O Larmor frequency of 67.8 MHz.
# To circumvent these issues, we turned our attention to an alternative method for obtaining q values, namely the application of ^17O NMR spectroscopy to Dy^3+ analogs of the CG sensors (DyCG2-6).^114 Specifically, interactions of water ligands with paramagnetic Dy^3+ ions lead to an upfield shift of the ^17O signals of H2O in a manner proportional to both the concentration of Dy^3+ and q. Moreover, this lanthanide-induced shift is largely insensitive to the non-water ligands coordinated to the paramagnetic metal center.^114 Dysprosium-induced shift (DIS) experiments for CG2 and CG3 were performed in 20 mM HEPES buffered to pH 7; CG4 and CG5 spectra were acquired in 10% acetonitrile in 20 mM HEPES buffered to pH 7 owing to solubility and stability of the Cu^+-bound complexes at higher Dy^3+ concentrations required for the DIS measurements (1-200 mmol/kg H2O). Dy concentrations were calculated using molality (with respect to H2O) since the ^17O shift represents the interaction between Dy^3+ and H2O; addition of CH3CN aids in stabilizing certain complexes but should not affect the DIS. The spectral results were calibrated to a DyCl3 standard (q=9) to determine the number of bound water molecules for the CG sensors with and without added Cu^+. A plot of varying DyCl3 concentrations versus DIS in pH 7 HEPES buffer has a slope of 324 ppm/(mol/kg H2O), which corresponds to a 36 ppm/(mol/kg H2O) shift per bound water molecule.
# The effects of DyCG2 on the chemical shift of ^17O-labeled H2O were determined in the absence and presence of 1 equiv Cu^+ at various concentrations of Dy^3+ (FIG. 8). In the absence of Cu^+, the measured ^17O shift response for DyCG2 is 9 ppm/(mol/kg H2O), corresponding to q=0.3. When 1 equiv of Cu^+ is added, the observed shift response increases to 72 ppm/(mol/kg H2O), corresponding to q=2.0. […] DIS measurements of DyCG4 and DyCG5 without Cu^+ show slopes of 7 ppm/(mol/kg H2O) (q=0.2) and 12 ppm/(mol/kg H2O) (q=0.3), respectively. Cu^+ binding increases the DIS slopes for DyCG4 and DyCG5 to […] ([…]) and 41 ppm/(mol/kg H2O) (q=1.0), respectively.
# [4] = Longitudinal relaxivity (r1) turn-on response to Cu+ from T1 measurements at 60 MHz; assay type: physicochemical; settings: 1 equiv Cu^+, 20 mM HEPES buffer, pH 7, 37° C.
# Experimental: (§1) The longitudinal relaxivity values for the CG contrast agents in the absence or presence of copper ions were determined using T1 measurements at 60 MHz. Studies were performed at 37° C. in 20 mM HEPES buffered to pH 7, and solutions of the purified CG sensors for relaxivity experiments contained 0.2 mM Gd^3+ as determined by ICP-OES. Spectroscopic data are collected in Table 1.
# Upon addition of up to 1 equiv of copper ions, the relaxivity values of the CG contrast agents increase, establishing the ability of these probes to sense copper using the MR modality (Table 1, FIG. 3). CG2, CG3, CG4, and CG5 respond to Cu^+ with relaxivity increases ranging from 92% to 360%. […] These values represent the largest relaxivity enhancements observed to date for metal-activated MR contrast agents and a ca. 9-fold improvement in copper ion response compared to CG1 (41% increase). The observed differences in turn-on Cu^+ responses for benzyl-substituted CG4 (290% increase) versus methyl-substituted CG5 (92% increase) with the same pyridyl-thioether receptor show the marked effects that small peripheral substitutions can have on relaxivity properties.
# [5] = Electrochemical Cu2+/Cu+ reduction potentials of copper-bound CG complexes; assay type: physicochemical; settings: PBS buffer, pH 7.4
# Experimental: CG6 is a unique member of the CG family that is equally responsive to both Cu^+ and Cu^2+. Addition of either Cu^+ or Cu^2+ to CG6 triggers a maximum 73% relaxivity turn-on from r1=2.2 mM^−1s^−1 to r1=3.8 mM^−1s^−1. […] On the other hand, copper-bound CG6, which responds to both Cu^+ and Cu^2+, has the least positive Cu^2+/Cu^+ reduction potential at +0.13 V.
# [6] = Longitudinal relaxivity (r1) from T1 measurements at 60 MHz, absence of copper; assay type: physicochemical; settings: no copper; 60 MHz, 20 mM HEPES buffer, pH 7, 37° C., 0.2 mM Gd^3+
# Experimental: as §1
# Nuclear magnetic relaxation dispersion (NMRD) experiments provide supporting evidence for this proposal (vide infra).
# [7] = Apparent Kd for Cu+ by UV-visible absorption with competing ligand thiourea; assay type: binding; settings: 20 mM HEPES buffer, pH 7, 25° C., 1:1 stoichiometry assumed, read-out: Kd (apparent dissociation constant)
# Experimental: FIG. 5. Normalized absorbance response of 0.2 mM CG2-6 to buffered Cu^+ (CG2-5) or Cu^2+ (CG6) solutions for Kd value determination. Spectra were acquired in 20 mM HEPES, pH 7.
# [8] = Metal ion selectivity of relaxivity response (competing metal ions alone or with added copper); assay type: physicochemical; settings: relaxivity at 60 MHz, 20 mM HEPES, pH 7, 37° C.
# Experimental: FIG. 6. Relaxivity responses of CG2 to various metal ions. White bars represent the addition of an excess of the appropriate metal ion (10 mM for Na^+, 2 mM for K^+, Mg^2+, and Ca^2+, and 0.2 mM for Fe^2+, Fe^3+, Cu^2+) to a 0.2 mM solution of CG2. Response to Zn^2+ was measured both at 0.2 mM Zn^2+ (Zn^2+1×) and 2 mM Zn^2+ (Zn^2+10×). Black bars represent the subsequent addition of 0.2 mM Cu^+ to the CG2 solution. Relaxivity measurements were acquired at 37° C. in 20 mM HEPES buffer, pH 7, at a proton Larmor frequency of 60 MHz.
# The potential ability of this new family of CG sensors to sense bioavailable copper pools in either or both its predominant oxidation states represents a significant advance over the initial CG1 compound.
# [9] = Nuclear magnetic relaxation dispersion (NMRD) profiles, Solomon-Bloembergen-Morgan fit; assay type: physicochemical; settings: copper free
# Experimental: FIG. 9. ^1H Nuclear magnetic relaxation dispersion profiles of CG3 and CG3+Cu^+ acquired at 25° C. The solid lines represent the best fit profiles.
# As a secondary, independent set of experiments to further probe the mechanisms of copper ion sensing by the CG contrast agents, we also performed nuclear magnetic relaxation dispersion (NMRD) measurements of these sensors in the absence and in the presence of copper ions using a field cycling relaxometer (FIG. 9). The profiles obtained were analyzed following Solomon-Bloembergen-Morgan theory^36-38 for the inner-sphere relaxivity and the Freed model^115 for the outer-sphere relaxivity, fixing the diffusion coefficient (D) at […], the distance between Gd^3+ and the inner sphere water protons (r) at 3.1 Å, and the inner sphere exchange lifetime (τM) at 160 ns, the reported value for the parent complex Gd^3+-DO3A. Profiles were obtained for all compounds in the copper-free state. Profiles in the presence of Cu^n+ were obtained for CG2-4 (Cu^+) and CG6 (Cu^2+).
# In fact, the measured outer-sphere relaxivities were so low that, in order to obtain a reasonable fit, the distance of closest approach of outer-sphere water protons (a) was allowed to vary. The distances obtained for the CG complexes (4.2-4.8 Å) were markedly longer than what is observed for typical Gd^3+ contrast agents with greater water access (3.8-4 Å). These values correlate with the copper-free relaxivities of CG2-6; longer a values give lower relaxivities and shorter a values give higher relaxivities. For Cu^+-sensing agents CG2-4, the estimated change in q of 2 as determined by DIS measurements was also observed in the fitted NMRD data. In fact, any attempt to fit the observed NMRD profiles with q=1 led to very poor agreement between experimental and calculated values. The change in q of 1 for CG6 upon addition of Cu^2+ as determined by NMRD is consistent with the lower turn-on response observed with this complex compared to CG2-4. The reduced q modulation for CG6 relative to CG2-4 could indicate that the carboxylic acid moiety used for Cu^2+ binding also interacts with the Gd^3+ center in the Cu^2+-bound state. The fitted rotational correlation times (τR) for copper-bound CG complexes all fall within the range expected for Gd^3+ complexes with molecular weights of 700-800 D. τR values for copper-free CG2-6 were fixed to values close to their copper-bound analogues as fits of NMRD data for q=0 complexes are not sensitive to small changes in τR. The values of Δ^2 (average quadratic transient zero field splitting), τv (electronic correlation time), and τs0 (electronic relaxation time at zero field), which govern the electronic relaxation time, are relatively similar to each other. These NMRD values are closer to those of Gd^3+-DTPA than Gd^3+-DOTA, reflecting the asymmetry of CG2-6.^64
structure (smiles),measurement,setting,value
[Cu+2] [Cu^2+],r1 value,[1],1.0 mM⁻¹ s⁻¹
"[Cl][Dy]([Cl])[Cl] [DyCl3, reference compound]",q of calibration standard,"[2]; 20 mM HEPES, pH 7",9^a
same,q of calibration standard,[2]; 10% CH3CN in 20 mM HEPES pH 7,9^a
same,−Δ ppm/[Dy] (DIS slope),"[3]; 20 mM HEPES, pH 7",324 ppm/(mol/kg H2O)
same,−Δ ppm/[Dy] (DIS slope),[3]; 10% CH3CN in 20 mM HEPES pH 7,362 ppm/(mol/kg H2O)
same,shift per bound water molecule,[3]; 10% acetonitrile in 20 mM pH 7 HEPES buffer,40 ppm/(mol/kg H2O)
same,shift per bound water molecule,[3]; pH 7 HEPES buffer,36 ppm/(mol/kg H2O)
CCSCCN(Cc1ccccc1)Cc1cccc(CN2CCN(CC(=O)[O-])CCN(CC(=O)[O-])CCN(CC(=O)[O-])CC2)n1.[Gd+3] [CG4],r1 (1 equiv Cu),[4],6.6^b mM^−1s^−1
same,Cu^2+/+ E1/2,[5],0.40 V vs. SHE
same,r1 (no Cu),[6],1.7 mM⁻¹ s⁻¹
same,Kd,[7],0.014 nM
same,redox specificity of relaxivity response (Cu^+ vs Cu^2+),[8],give turn-on relaxivity increases with Cu^+ but do not respond to Cu^2+
same,τs0 (electronic relaxation time at zero field),[9],99 ps
same,r1p 20 MHz 25° C.,"[9]; 0.5 mM, 20 mM HEPES pH 7",2.1 mM⁻¹ s⁻¹
same,a (distance of closest approach of outer-sphere water protons),[9]; best-fit value,4.2 ± 0.15 Å
same,Δ^2 (average quadratic transient zero field splitting),[9]; best-fit value,3.4 ± 1.4 10^19 s^−2
same,τv (electronic correlation time),[9]; best-fit value,25 ± 7.7 ps
same,q,[9]; fixed in the fitting procedure,0^c
same,τR (rotational correlation time),"[9]; not experimentally determined, assumed equal to corresponding q ≠ 0 complex (CG5: average of the other complexes)",130^d ps
